Source: patent US4077981A, “Certain 1-alkyl-2-dichlorophenyliminopyrrolidines” (Bayer Aktiengesellschaft, priority 1968, dated 1978)
Like-named read-outs stand apart in the source and are kept apart here.

How the values were obtained:
Toxicity on the mouse = conditions: in vivo, read-out: Toxicity (highest survived dose)
Description: The toxicity determined on the mouse is: orally, 500 mg/kg; subcutaneously,500 mg/kg (highest survived doses).

[1] = tested on: Boophilus microplus, Biarra strain (resistant); assay: In-vitro test for ovicidal effect on ticks (Biarra strain); conditions: for Ovicidal effect: 50% inhibition with the stated concentration of active compound: Table 4, concentration giving 50% inhibition; for Ovicidal effect: 50% inhibition with the stated concentration of active compound / Ovicidal effect: 100% inhibition with the stated concentration of active compound: ovicidal only (marked not adulticidal); for Ovicidal effect: 100% inhibition with the stated concentration of active compound: Table 4, concentration giving 100% inhibition
Description: (§1) In-vitro Test for Ovicidal Effect on Ticks
The emulsion concentrate so obtained is diluted with water to the application concentration desired in each case.
After immersion of, in each case, 10 female specimens of the various strains of ticks, the individual ticks are transferred to plastic dishes, the bottom of each of which is covered with a disc of filter paper.

Boophilus, Biarra strain = assay: In-vitro test for adulticidal effect on ticks (24 hours); set-up: species or system Boophilus microplus; conditions: Table 4, after 24 hours, at the concentrations stated
Description: In addition, the adulticidal effectiveness of the preparation of the given active compound after 24 hours is determined by ascertaining the voluntary movement of limbs and bodies of the immersed adult ticks after stimulation with a fine needle compared with the voluntary movement of limbs and bodies of the untreated adult ticks. The effectiveness is stated in %, 100% meaning that no movements of any kind of the limbs and bodies were any longer detectable, and 0% signifying that the ticks moved limbs and bodies in normal manner.

[2] = tested on: Boophilus microplus, normally sensitive strain; assay: In-vitro test for ovicidal effect on ticks (normally sensitive strain); conditions: Rhipicephalus microplus, 840 h, after 35 days, read-out: Inhibition of egg depositing
Description: as §1
(§2) 3 g of the particular active compound are mixed with 7 g of a mixture of equal parts by weight of ethyleneglycol monomethyl ether and nonylphenyl polyglycol ether. The emulsion concentrate so obtained is diluted with water to the application concentration desired in each case.
(§3) Adult, fully engorged female ticks of the species Boophilus microplus (resistant) are immersed for 1 minute in this preparation of the given active compound. After immersion of, in each case, 10 female specimens of the various strains of ticks, the individual ticks are transferred to plastic dishes, the bottom of each of which is covered with a disc of filter paper. As a control, similar ticks of a normally sensitive strain are treated in exactly the same manner.
(§4) After 35 days, the effectiveness of the preparation of the given active compound is determined by ascertaining the inhibition of the depositing of fertile eggs compared with the egg depositing of untreated control ticks. The effect is stated in %, 100% meaning that fertile eggs ceased to be deposited, and 0% signifying that the ticks have deposited eggs in normal manner like the untreated control ticks.

[3] = tested on: Boophilus microplus, Biarra strain; assay: In-vivo test against ticks on cattle; set-up: species or system Boophilus microplus (on cattle)
Description: In-vivo test against ticks on cattle
3 parts of the particular active compound are mixed with 7 parts of a mixture of equal parts by weight of ethyleneglycol monomethyl ether and nonylphenyl polyglycol ether. The emulsion concentrate so obtained is diluted with water to the application concentration desired in each case.
Cattle which have been infected (12 times at intervals of 2 days) with resistant larvae of ticks of the species Boophilus microplus, Biarra strain, are sprayed on the 24th day after the first infection with the preparation of the given active compound so obtained.
The effect of the preparation of the given active compound is determined by ascertaining the number of adult female ticks which have reached development on the treated cattle and later lay viable eggs. This number is compared with the number of adult femal ticks which have reached development on untreated cattle.
As a measure of the intensity of the infestation before treatment, there is used the number of adult females which reach development in the case of the treated and untreated animals in the last three days before the time of treatment.

[4] = tested on: Boophilus microplus, Ridgeland strain (resistant); assay: In-vitro test for ovicidal effect on ticks (Ridgeland strain); conditions: Rhipicephalus microplus, 840 h, Ridgeland strain, resistant, after 35 days, read-out: Inhibition of egg depositing
Description: as §1, §2, §3, §4

C=CCN1CCCC1=Nc1ccc(Cl)cc1Cl [Example 6, 1-(α-allyl)-2-(2',4'-dichloro-phenylimino)-pyrrolidine]
MTD (Toxicity on the mouse; po, orally): 500 mg/kg | MTD (Toxicity on the mouse; sc, subcutaneously): 500 mg/kg

C=CCN1CCCC1=Nc1cc(Cl)c(Cl)cc1Cl
Ovicidal effect: 50% inhibition with the stated concentration of active compound [1]: 0.02 % by weight | Ovicidal effect: 100% inhibition with the stated concentration of active compound [1]: 0.03 % by weight | Adulticidal effect (Boophilus, Biarra strain): not adulticidal

C=CCN1CCCC1=Nc1ccc(Cl)cc1C
Ovicidal effect: 50% inhibition with the stated concentration of active compound [1]: 0.02 % by weight | Ovicidal effect: 100% inhibition with the stated concentration of active compound [1]: 0.03 % by weight | Adulticidal effect (Boophilus, Biarra strain): not adulticidal

CCCN1CCCC1=Nc1ccc(F)cc1Cl
Ovicidal effect: 50% inhibition with the stated concentration of active compound [1]: 0.03 % by weight | Ovicidal effect: 100% inhibition with the stated concentration of active compound [1]: 0.1 % by weight | Adulticidal effect (Boophilus, Biarra strain): not adulticidal

CN1CCCC1=Nc1ccc(Cl)cc1Cl [l1, 1-methyl-2-(2',4'-dichloro-phenylimino)-pyrrolidine]
inhibition at 0.01 % strength ([1]; Rhipicephalus microplus, 840 h, 0.01% active compound, resistant, after 35 days, read-out: Inhibition of egg depositing): 0% | inhibition at 0.03 % strength ([1]; Rhipicephalus microplus, 840 h, 0.03% active compound, resistant, after 35 days, read-out: Inhibition of egg depositing): > 50% | inhibition at 0.1 % strength ([1]; Rhipicephalus microplus, 840 h, 0.1% active compound, resistant, after 35 days, read-out: Inhibition of egg depositing): 100% | inhibition at 0.3 % strength ([1]; Rhipicephalus microplus, 840 h, 0.3% active compound, resistant, after 35 days, read-out: Inhibition of egg depositing): 100% | inhibition at 1 % strength ([1]; Rhipicephalus microplus, 840 h, 1.0% active compound, resistant, after 35 days, read-out: Inhibition of egg depositing): 100% | inhibition at 0.01 % strength ([2]; 0.01% active compound): 0% | inhibition at 0.03 % strength ([2]; 0.03% active compound): > 50% | inhibition at 0.1 % strength ([2]; 0.1% active compound): 100% | inhibition at 0.3 % strength ([2]; 0.3% active compound): 100% | inhibition at 1 % strength ([2]; 1.0% active compound): 100% | Number of female adult ticks which reach development on the cattle ([3]; 0.3%, days after treatment +4+5+6): 1 | Number of female adult ticks which reach development on the cattle ([3]; 0.3%, days after treatment +7+8+9): 119 | Number of female adult ticks which reach development on the cattle ([3]; 0.4%, days after treatment +7+8+9): 72 | Number of female adult ticks which reach development on the cattle ([3]; 0.5%, days after treatment +7+8+9): 1 | Number of female adult ticks which reach development on the cattle ([3]; 0.5%, days after treatment +10+11+12): 7 | Number of female adult ticks which reach development on the cattle ([3]; 0.5%, days after treatment +13+14+15): 3 | Number of female adult ticks which reach development on the cattle ([3]; 0.5%, days after treatment +16+17+18): 1 | Total number of female adult ticks which reach development on the cattle ([3]; 0.5%, total 1-21 days): 12 | inhibition at 0.01 % strength ([4]; 0.01% active compound): 0% | inhibition at 0.03 % strength ([4]; 0.03% active compound): > 50% | inhibition at 0.1 % strength ([4]; 0.1% active compound): 100% | inhibition at 0.3 % strength ([4]; 0.3% active compound): 100% | inhibition at 1 % strength ([4]; 1.0% active compound): 100%

C=CCN1CCCC1=Nc1cc(Cl)ccc1Cl
Ovicidal effect: 50% inhibition with the stated concentration of active compound [1]: 0.03 % by weight | Ovicidal effect: 100% inhibition with the stated concentration of active compound [1]: 0.1 % by weight | Adulticidal effect (Boophilus, Biarra strain): not adulticidal

CCCCN1CCCC1=Nc1ccc(F)cc1Cl
Ovicidal effect: 50% inhibition with the stated concentration of active compound [1]: 0.01 % by weight | Ovicidal effect: 100% inhibition with the stated concentration of active compound [1]: 0.03 % by weight | Adulticidal effect (Boophilus, Biarra strain): not adulticidal
